# Results as given in PubChem BioAssay AID1845211 (Molecular Pharmacology Branch, DTP, NCI, 2023).
# System: NCI-H322M multicellular tumor spheroids, viability (% test/control)
# Test: Anticancer human tumor NCI-H322M cell line growth inhibition;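 as to viability, T/C: spheroids exposed to compound for seven days before readout; 100% = DMSO vehicle control wells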
# Details: for IC50: curve of first compound; for viability, T/C: stronger effect = lower value
# Method in brief: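 Complex tumor spheroids combined malignant cells with endothelial cells and mesenchymal stem cells. DNA-damaging drugs and DNA repair inhibitors were tested alone and in combination, at half-log dilutions down from clinical Cmax (top 10 microM if Cmax unknown), 0.25% DMSO final.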
# [1] = second compound 1 µM, first compound 0.0949 µM
# [2] = second compound 1 µM, first compound 0.3 µM
# [3] = second compound 1 µM, first compound 0.949 µM
# [4] = second compound 1 µM, first compound 3 µM
# [5] = second compound 3.16 µM, first compound 0.0949 µM
# [6] = second compound 3.16 µM, first compound 0.3 µM
# [7] = second compound 3.16 µM, first compound 0.949 µM
# [8] = second compound 3.16 µM, first compound 3 µM
# [9] = second compound 10 µM, first compound 0.0949 µM
# [10] = second compound 10 µM, first compound 0.3 µM
# [11] = second compound 10 µM, first compound 0.949 µM
# [12] = second compound 10 µM, first compound 3 µM
# [13] = second compound 31.6 µM, first compound 0.0949 µM
# [14] = second compound 31.6 µM, first compound 0.3 µM
# [15] = second compound 31.6 µM, first compound 0.949 µM
# [16] = second compound 31.6 µM, first compound 3 µM
# [17] = second compound 100 µM, first compound 0.0949 µM
# [18] = second compound 100 µM, first compound 0.3 µM
# [19] = second compound 100 µM, first compound 0.949 µM
# [20] = second compound 100 µM, first compound 3 µM
Compound,IC50 (second compound 1 µM) [µM],IC50 (second compound 3.16 µM) [µM],IC50 (second compound 10 µM) [µM],IC50 (second compound 31.6 µM) [µM],IC50 (second compound 100 µM) [µM],"viability, T/C [1] [%]","viability, T/C [2] [%]","viability, T/C [3] [%]","viability, T/C [4] [%]","viability, T/C [5] [%]","viability, T/C [6] [%]","viability, T/C [7] [%]","viability, T/C [8] [%]","viability, T/C [9] [%]","viability, T/C [10] [%]","viability, T/C [11] [%]","viability, T/C [12] [%]","viability, T/C [13] [%]","viability, T/C [14] [%]","viability, T/C [15] [%]",other results
Cn1ncnc1[C@H]1c2n[nH]c(=O)c3cc(F)cc(c23)N[C@@H]1c1ccc(F)cc1 + Cn1nnc2c(C(N)=O)ncn2c1=O,> 3,> 3,> 3,> 3,> 3,87.8,81.2,88.8,70,84.3,74.3,81.5,67.8,73.8,76.2,77.1,59.3,78.8,76.5,70.9,"viability, T/C (second compound 1 µM, first compound 0.00949 µM): 89.4%; viability, T/C (second compound 1 µM, first compound 0.03 µM): 79.4%; viability, T/C (second compound 3.16 µM, first compound 0.00949 µM): 77.9%; viability, T/C (second compound 3.16 µM, first compound 0.03 µM): 113%; viability, T/C (second compound 10 µM, first compound 0.00949 µM): 83.1%; viability, T/C (second compound 10 µM, first compound 0.03 µM): 71%; viability, T/C (second compound 31.6 µM, first compound 0.00949 µM): 90.3%; viability, T/C (second compound 31.6 µM, first compound 0.03 µM): 74.1%; viability, T/C [16]: 69.3%; viability, T/C (second compound 100 µM, first compound 0.00949 µM): 92.2%; viability, T/C (second compound 100 µM, first compound 0.03 µM): 68.8%; viability, T/C [17]: 64.5%; viability, T/C [18]: 68.9%; viability, T/C [19]: 59.5%; viability, T/C [20]: 57.7%"
O=C(c1cc(Cc2n[nH]c(=O)c3ccccc23)ccc1F)N1CCN(C(=O)C2CC2)CC1 + Cn1nnc2c(C(N)=O)ncn2c1=O,> 30,> 30,> 30,> 30,> 30,84.3,93.5,88.7,92.5,86.1,81.5,80.1,79.9,85.4,90.7,85.7,78.1,105,87.5,86.1,"viability, T/C (second compound 1 µM, first compound 9.49 µM): 78%; viability, T/C (second compound 1 µM, first compound 30 µM): 94%; viability, T/C (second compound 3.16 µM, first compound 9.49 µM): 88.2%; viability, T/C (second compound 3.16 µM, first compound 30 µM): 84.6%; viability, T/C (second compound 10 µM, first compound 9.49 µM): 80%; viability, T/C (second compound 10 µM, first compound 30 µM): 73.5%; viability, T/C [16]: 93.1%; viability, T/C (second compound 31.6 µM, first compound 9.49 µM): 84.5%; viability, T/C (second compound 31.6 µM, first compound 30 µM): 93.6%; viability, T/C [17]: 76.8%; viability, T/C [18]: 82.4%; viability, T/C [19]: 96.4%; viability, T/C [20]: 86.8%; viability, T/C (second compound 100 µM, first compound 9.49 µM): 75.2%; viability, T/C (second compound 100 µM, first compound 30 µM): 71.4%"
